Data taken from US8623909B2, “Prophylactic/therapeutic agents for lifestyle-related diseases” (priority 2008, dated 2014).

Experiments:
PSA promoter = experiment: PSA promoter-luciferase activity in LNCaP cells (dual-luciferase reporter); assay type: cell-based, human; details: 10^−5M, 24 hours, control (DMSO) 1.0
Procedure: Plasmid pCMV-hAR was constructed based on a method previously reported by the inventors of the present invention (J. Biol. Chem., 282, 7329-7338). In addition, reporter plasmids consisting of PGL3-PSA (human) and PGL3-UCP-1 (mouse) were also constructed based on a method previously reported by the inventors of the present invention (Diabetes, 54, 1000-1008). Furthermore, pRL-SV40 was acquired commercially.
NIH-3T30-L1 mouse preadipocytes were cultured in Dulbecco's modified Eagle's medium (Sera Laboratories) containing 10% fetal calf serum. In addition, cells of human prostate cancer cell line LNCap were cultured in RPMI 1640 medium (Sigma) containing 10% fetal calf serum. Furthermore, these two types of cell lines were obtained from the American Type Culture Collection (Manassas).
The NIH-3T3-L1 cells of 2) above were co-transfected with pCMV-hAR, pRL-SV40 and PGL3-UCP-1 (mouse) in a 24-well plate using an Effectene Transfection Kit (Qiagen) and a Fugene HD Kit (Roche Diagnostics). In addition, the LNCaP cells of 2) above were similarly co-transfected with pCMV-hAR, pRL-SV40 and PGL3-PSA (human).
4) Measurement of Effect on PSA Promoter-Luciferase Activity in LNCaP Cells
The LNCaP cells co-transfected in 3) above were cultured for 24 hours in DMEM or RPMI 1640 containing 10% fetal calf serum treated with dextran-charcoal and a test compound (dissolved in a small amount of DMSO) 24 hours after transfection. Subsequently, the activities of firefly luciferase and Renilla luciferase were assayed in a 24-well plate using the Dual-Luciferase Reporter Assay System (Promega) in accordance with the protocol of Minilumat LB9507 (Berthold Technologies). Furthermore, the value of firefly luciferase activity were normalized based on the internal Renilla control, and were presented as relative luciferase activity.

[1] = test system: UCP-1 mRNA in NIH-3T3-L1 cells; experiment: UCP-1 mRNA expression level in NIH-3T3-L1 cells (real-time PCR); assay type: cell-based, mouse; details: 10^−5M, 24 hours, control (DMSO) 1.0
Procedure: (§1) 1) Extraction of Total RNA
(§2) After respectively culturing the LNCaP cells and NIH-3T3-L1 cells co-transfected in 1) to 3) above in 6-well plates, the cells were cultured for 24 hours in EMEM or RPMI 1640 containing 10% fetal calf serum treated with dextran-charcoal and a test compound (dissolved in a small amount of DMSO). Subsequently, total RNA was respectively extracted using Isogen (Wako Pure Chemical Industries).
(§3) 5 μg aliquots of each total RNA obtained in 1) above were reverse-transcribed to first strand cDNA using a Superscript III Kit (Invitrogen) and brought to a final volume of 20 μL. Real-time PCR was carried out using LightCycler FastStart DNA Master SYBR Green I (Roche Diagnostic) in order to quantify expression of PSA mRNA in LNCaP cells and UCP-1 mRNA in NIH-3T3-L1 cells. PCR was carried out under the following conditions in 20 μL of reaction mixture: 50 cycles consisting of denaturing for 3 seconds at 95° C., annealing for 10 seconds at 60° C. and elongating for 25 seconds at 72° C. β-actin mRNA was also simultaneously amplified for use as an internal standard. Real-time PCR value for each transcription product were calculated as a relative ratio to β-actin.

PSA mRNA in LNCaP cells = experiment: PSA mRNA expression level in LNCaP cells (real-time PCR); assay type: cell-based, human; details: 10^−5M, 24 hours, control (DMSO) 1.0
Procedure: as §1, §2, §3

AR = biological target: T1, AR (Homo sapiens, UniProt P10275); details: previous studies of the inventors; cited from earlier work
T1 sequence (P10275 1-920): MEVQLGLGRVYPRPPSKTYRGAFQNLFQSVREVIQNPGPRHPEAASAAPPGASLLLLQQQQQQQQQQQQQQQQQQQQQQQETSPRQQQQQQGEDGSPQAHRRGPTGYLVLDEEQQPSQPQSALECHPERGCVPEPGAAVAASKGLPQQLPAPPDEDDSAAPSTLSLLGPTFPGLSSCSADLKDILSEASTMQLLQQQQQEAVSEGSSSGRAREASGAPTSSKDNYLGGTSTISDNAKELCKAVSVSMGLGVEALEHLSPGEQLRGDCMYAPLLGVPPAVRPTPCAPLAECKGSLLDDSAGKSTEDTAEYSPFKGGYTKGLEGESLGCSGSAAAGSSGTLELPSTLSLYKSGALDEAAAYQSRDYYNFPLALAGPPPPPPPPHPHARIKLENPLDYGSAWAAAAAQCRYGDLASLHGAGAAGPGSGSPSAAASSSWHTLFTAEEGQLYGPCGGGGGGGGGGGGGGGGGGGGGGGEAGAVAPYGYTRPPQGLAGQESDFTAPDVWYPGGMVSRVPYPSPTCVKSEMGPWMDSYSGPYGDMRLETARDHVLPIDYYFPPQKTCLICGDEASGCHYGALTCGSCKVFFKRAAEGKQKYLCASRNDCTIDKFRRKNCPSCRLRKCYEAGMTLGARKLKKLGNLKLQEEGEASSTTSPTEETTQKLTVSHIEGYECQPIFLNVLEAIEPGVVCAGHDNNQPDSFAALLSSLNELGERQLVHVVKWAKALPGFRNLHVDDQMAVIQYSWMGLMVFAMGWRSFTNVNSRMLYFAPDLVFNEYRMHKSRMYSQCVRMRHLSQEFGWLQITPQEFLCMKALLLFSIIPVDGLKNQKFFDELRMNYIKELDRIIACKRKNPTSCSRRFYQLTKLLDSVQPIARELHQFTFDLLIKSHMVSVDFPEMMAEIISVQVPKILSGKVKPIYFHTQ

Row | SMILES | Value of luciferase transcription activity (PSA promoter, relative luciferase activity) (PSA promoter) | UCP-1 mRNA (relative ratio to β-actin mRNA) [1] | PSA mRNA (relative ratio to β-actin mRNA) (PSA mRNA in LNCaP cells) | Formation of subnuclear AR foci (dots) (in words) (AR)
1 | CO[C@H]1CC[C@@]2(C)C(=CCC3C4CCOC[C@@]4(C)CCC32)C1 (stereo partly drawn) [Compound of formula (IIIa), 16a-homo-16a-oxestra-5-ene-3β-methoxide] | 0.8 | 1.8 | 0.8 | 
2 | CC(=O)O[C@H]1CC[C@]2(C)C3CC[C@]45C(=O)O[C@H](C)[C@H]4CCC5C3CC[C@H]2C1 (stereo partly shown) [Compound of formula (IIa)] | 0.8 | 1.4 | 0.9 | 
3 | CC(C)(O)C(=O)Nc1ccc([N+](=O)[O-])c(C(F)(F)F)c1 [hydroxyflutamide] |  |  |  | do not form foci (dots)
